Values quoted from earlier work in patent US5688981A, “Ethylenediaminetriacetic acid and N-acyl ethylenediaminetriacetic acid silver chelating agents and surfactants” (Hampshire Chemical Corp., priority 1996, dated 1997).

Assays:
[1] = background

SMILES	concentration with propensity towards protein precipitation (protein)	toxicity on oral administration [1]
O=C([O-])CC(O)(CC(=O)[O-])C(=O)[O-].[Ag+].[Ag+].[Ag+] [silver citrate]	10^-4 M	
[Ag][I] [silver iodide]	10^-4 M	
CC(O)C(=O)[O-].[Ag+] (centres unmarked) [silver lactate]	10^-4 M	
O=[N+]([O-])[O-].[Ag+] [silver nitrate]		can cause severe gastroenteritis which may be fatal
[Ag+].[Ag+].[O-2] [silver oxide]	10^-4 M	
